# Measurements: paper PMC9329436, “Optimization of the 4-anilinoquin(az)oline scaffold as epidermal growth factor receptor (EGFR) inhibitors for chordoma utilizing a toxicology profiling assay platform” (Scientific Reports, 2022)
# Like-named read-outs stand apart in the source and are kept apart here.
# Key:
# Type in all cases: biochemical
# [1] = target: 320 wild-type protein kinases (Homo sapiens, UniProt P08581); settings: MET, singlicate
# From the text: (§1) Table S4. Profiling of two compounds at two concentrations against 320 wild-type protein kinases; singlicate measurement; Residual activities (% of control).
# [2] = target: 320 wild-type protein kinases (Homo sapiens, UniProt P12931); settings: kinase SRC (GST-HIS-tag), singlicate
# From the text: as §1
# [3] = target: T1, 320 wild-type protein kinases (Homo sapiens, UniProt P15735); settings: singlicate
# T1 sequence (P15735 1-406): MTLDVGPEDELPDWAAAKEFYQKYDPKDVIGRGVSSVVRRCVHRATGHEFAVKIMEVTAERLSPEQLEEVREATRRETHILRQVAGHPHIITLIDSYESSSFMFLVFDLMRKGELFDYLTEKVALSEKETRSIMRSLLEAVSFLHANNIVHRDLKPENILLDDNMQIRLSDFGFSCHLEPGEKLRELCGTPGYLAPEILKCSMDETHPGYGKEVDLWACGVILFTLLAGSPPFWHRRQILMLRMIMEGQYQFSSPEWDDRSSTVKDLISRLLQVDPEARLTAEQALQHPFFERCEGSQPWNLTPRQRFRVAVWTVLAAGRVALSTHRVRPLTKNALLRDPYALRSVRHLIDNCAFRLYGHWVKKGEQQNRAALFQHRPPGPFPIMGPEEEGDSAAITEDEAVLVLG
# From the text: as §1
# [4] = target: T2, 320 wild-type protein kinases (Homo sapiens, UniProt P21709); settings: singlicate
# T2 sequence (P21709 26-976): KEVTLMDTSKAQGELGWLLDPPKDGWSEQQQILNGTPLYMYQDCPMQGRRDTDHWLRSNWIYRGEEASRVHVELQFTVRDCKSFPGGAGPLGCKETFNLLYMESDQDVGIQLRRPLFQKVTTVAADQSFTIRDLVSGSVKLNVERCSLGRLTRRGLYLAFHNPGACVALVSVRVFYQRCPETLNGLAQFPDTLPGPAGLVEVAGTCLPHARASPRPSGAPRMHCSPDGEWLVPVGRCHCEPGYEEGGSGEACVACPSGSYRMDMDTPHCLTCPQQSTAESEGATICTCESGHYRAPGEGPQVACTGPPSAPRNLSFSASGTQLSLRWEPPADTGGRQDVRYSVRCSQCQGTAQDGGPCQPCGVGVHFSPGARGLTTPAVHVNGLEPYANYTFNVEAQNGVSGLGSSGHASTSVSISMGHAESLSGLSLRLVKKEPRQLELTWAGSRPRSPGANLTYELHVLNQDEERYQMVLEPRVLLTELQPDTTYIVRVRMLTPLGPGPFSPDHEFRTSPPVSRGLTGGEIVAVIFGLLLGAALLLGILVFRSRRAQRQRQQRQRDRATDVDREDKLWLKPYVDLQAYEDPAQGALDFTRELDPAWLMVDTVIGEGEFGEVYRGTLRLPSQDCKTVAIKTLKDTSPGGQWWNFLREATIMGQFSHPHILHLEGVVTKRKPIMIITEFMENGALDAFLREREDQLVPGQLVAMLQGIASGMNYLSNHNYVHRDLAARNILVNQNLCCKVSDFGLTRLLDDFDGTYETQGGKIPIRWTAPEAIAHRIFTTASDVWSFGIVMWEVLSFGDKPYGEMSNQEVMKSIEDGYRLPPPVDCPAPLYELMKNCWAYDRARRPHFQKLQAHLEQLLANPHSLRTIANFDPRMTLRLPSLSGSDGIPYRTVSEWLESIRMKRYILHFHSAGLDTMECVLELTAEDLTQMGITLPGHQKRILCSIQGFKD
# From the text: as §1
# [5] = target: 320 wild-type protein kinases (Homo sapiens, UniProt P49841); settings: GSK3-beta, singlicate
# From the text: as §1
# [6] = target: 320 wild-type protein kinases (Homo sapiens, UniProt P57059); settings: kinase SIK1, singlicate
# From the text: as §1
# [7] = target: T3, 320 wild-type protein kinases (Homo sapiens, UniProt Q08881); settings: ITK, singlicate
# T3 sequence (Q08881 1-620): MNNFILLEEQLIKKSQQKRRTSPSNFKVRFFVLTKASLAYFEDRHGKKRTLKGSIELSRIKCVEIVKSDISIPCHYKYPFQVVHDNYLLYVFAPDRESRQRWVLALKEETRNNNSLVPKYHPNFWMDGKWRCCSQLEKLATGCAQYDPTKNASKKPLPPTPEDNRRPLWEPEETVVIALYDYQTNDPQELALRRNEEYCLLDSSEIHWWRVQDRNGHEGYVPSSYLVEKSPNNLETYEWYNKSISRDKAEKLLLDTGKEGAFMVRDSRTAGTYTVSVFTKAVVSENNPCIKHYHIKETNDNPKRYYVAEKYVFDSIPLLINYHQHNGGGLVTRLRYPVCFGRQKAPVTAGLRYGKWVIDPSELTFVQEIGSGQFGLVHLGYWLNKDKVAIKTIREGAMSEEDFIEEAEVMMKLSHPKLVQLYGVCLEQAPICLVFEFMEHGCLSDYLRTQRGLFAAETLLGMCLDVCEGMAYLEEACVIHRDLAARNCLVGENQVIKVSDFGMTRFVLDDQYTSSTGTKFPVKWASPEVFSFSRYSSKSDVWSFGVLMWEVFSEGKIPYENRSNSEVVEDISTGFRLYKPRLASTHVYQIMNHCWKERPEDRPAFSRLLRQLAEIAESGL
# From the text: as §1
# [8] = target: 320 wild-type protein kinases (Homo sapiens, UniProt Q16816); settings: singlicate
# From the text: as §1
# [9] = target: 320 wild-type protein kinases (Homo sapiens, UniProt Q9Y3S1); settings: kinase WNK2, singlicate
# From the text: as §1
# [10] = target: 320 wild-type protein kinases (Homo sapiens, UniProt Q9Y5S2); settings: CDC42BPB, singlicate
# From the text: as §1
# Sequence of 320 wild-type protein kinases (Homo sapiens, UniProt P57059) (P57059 whole entry): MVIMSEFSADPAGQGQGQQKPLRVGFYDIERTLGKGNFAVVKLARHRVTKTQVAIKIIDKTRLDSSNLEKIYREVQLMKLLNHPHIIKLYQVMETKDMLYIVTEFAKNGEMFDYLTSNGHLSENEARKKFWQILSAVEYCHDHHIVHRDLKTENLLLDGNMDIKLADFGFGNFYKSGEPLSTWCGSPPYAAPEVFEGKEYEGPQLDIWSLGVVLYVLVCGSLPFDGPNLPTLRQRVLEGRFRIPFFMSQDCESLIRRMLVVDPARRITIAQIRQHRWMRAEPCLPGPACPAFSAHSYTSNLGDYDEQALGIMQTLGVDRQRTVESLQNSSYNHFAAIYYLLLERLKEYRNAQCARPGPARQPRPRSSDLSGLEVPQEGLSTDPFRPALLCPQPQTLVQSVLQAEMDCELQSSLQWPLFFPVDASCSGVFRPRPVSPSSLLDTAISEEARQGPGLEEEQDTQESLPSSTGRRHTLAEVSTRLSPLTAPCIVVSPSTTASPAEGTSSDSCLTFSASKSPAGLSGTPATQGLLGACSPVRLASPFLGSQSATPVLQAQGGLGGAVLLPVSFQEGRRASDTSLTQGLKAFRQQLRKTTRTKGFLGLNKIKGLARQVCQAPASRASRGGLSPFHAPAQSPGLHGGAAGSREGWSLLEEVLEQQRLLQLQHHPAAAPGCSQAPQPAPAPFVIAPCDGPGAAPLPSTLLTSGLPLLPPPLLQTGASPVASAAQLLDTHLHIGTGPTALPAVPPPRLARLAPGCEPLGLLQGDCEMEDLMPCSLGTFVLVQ
# Sequence of 320 wild-type protein kinases (Homo sapiens, UniProt P08581) (P08581 25-1390): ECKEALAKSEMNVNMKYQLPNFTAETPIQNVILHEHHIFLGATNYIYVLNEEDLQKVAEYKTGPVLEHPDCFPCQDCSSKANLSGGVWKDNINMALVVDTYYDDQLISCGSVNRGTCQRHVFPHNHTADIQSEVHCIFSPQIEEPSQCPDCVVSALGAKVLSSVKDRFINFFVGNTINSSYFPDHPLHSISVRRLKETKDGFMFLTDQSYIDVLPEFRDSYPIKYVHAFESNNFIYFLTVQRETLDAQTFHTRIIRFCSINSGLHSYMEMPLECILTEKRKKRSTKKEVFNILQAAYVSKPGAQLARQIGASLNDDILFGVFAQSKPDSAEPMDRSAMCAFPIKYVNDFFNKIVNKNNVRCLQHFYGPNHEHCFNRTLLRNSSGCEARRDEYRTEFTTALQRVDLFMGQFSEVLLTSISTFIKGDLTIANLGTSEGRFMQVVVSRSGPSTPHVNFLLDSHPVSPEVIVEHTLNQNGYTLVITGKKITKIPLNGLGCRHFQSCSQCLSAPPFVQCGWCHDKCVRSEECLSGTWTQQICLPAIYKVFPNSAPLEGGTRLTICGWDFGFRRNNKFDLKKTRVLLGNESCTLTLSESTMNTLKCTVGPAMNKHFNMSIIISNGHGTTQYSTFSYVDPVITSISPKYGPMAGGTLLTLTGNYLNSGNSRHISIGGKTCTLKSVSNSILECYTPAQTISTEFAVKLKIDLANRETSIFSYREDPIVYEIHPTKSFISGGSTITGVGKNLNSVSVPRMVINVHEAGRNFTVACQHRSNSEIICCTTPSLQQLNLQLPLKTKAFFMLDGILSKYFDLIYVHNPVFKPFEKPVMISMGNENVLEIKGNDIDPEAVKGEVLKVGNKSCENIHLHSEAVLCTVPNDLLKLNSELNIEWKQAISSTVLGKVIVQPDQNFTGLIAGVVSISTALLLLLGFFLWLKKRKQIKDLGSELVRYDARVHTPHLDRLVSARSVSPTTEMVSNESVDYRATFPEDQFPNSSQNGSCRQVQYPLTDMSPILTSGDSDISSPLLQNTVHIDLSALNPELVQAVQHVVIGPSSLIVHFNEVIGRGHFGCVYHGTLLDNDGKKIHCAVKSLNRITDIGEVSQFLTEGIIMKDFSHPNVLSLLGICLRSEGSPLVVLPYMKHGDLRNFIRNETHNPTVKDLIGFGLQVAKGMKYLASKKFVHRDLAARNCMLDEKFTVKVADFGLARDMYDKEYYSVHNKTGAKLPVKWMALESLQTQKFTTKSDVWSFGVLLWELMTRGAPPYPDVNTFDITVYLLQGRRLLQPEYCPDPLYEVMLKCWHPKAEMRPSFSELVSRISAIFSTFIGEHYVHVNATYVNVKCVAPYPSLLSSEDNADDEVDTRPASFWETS
# Sequence of 320 wild-type protein kinases (Homo sapiens, UniProt P12931) (P12931 whole entry): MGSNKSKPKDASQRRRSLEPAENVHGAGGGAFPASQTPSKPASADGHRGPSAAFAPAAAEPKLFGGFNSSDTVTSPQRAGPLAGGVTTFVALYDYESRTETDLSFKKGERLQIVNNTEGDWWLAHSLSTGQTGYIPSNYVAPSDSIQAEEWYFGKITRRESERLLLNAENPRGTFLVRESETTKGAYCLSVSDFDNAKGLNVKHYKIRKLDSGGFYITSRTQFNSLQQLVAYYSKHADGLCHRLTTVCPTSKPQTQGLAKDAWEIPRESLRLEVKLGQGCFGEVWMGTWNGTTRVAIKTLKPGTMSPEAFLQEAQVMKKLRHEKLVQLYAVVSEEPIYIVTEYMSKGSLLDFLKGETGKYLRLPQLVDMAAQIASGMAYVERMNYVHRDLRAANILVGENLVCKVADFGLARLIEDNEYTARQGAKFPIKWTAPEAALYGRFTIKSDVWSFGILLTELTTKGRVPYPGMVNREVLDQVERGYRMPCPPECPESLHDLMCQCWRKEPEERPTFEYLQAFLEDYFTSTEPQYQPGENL
# Sequence of 320 wild-type protein kinases (Homo sapiens, UniProt Q9Y5S2) (Q9Y5S2 whole entry): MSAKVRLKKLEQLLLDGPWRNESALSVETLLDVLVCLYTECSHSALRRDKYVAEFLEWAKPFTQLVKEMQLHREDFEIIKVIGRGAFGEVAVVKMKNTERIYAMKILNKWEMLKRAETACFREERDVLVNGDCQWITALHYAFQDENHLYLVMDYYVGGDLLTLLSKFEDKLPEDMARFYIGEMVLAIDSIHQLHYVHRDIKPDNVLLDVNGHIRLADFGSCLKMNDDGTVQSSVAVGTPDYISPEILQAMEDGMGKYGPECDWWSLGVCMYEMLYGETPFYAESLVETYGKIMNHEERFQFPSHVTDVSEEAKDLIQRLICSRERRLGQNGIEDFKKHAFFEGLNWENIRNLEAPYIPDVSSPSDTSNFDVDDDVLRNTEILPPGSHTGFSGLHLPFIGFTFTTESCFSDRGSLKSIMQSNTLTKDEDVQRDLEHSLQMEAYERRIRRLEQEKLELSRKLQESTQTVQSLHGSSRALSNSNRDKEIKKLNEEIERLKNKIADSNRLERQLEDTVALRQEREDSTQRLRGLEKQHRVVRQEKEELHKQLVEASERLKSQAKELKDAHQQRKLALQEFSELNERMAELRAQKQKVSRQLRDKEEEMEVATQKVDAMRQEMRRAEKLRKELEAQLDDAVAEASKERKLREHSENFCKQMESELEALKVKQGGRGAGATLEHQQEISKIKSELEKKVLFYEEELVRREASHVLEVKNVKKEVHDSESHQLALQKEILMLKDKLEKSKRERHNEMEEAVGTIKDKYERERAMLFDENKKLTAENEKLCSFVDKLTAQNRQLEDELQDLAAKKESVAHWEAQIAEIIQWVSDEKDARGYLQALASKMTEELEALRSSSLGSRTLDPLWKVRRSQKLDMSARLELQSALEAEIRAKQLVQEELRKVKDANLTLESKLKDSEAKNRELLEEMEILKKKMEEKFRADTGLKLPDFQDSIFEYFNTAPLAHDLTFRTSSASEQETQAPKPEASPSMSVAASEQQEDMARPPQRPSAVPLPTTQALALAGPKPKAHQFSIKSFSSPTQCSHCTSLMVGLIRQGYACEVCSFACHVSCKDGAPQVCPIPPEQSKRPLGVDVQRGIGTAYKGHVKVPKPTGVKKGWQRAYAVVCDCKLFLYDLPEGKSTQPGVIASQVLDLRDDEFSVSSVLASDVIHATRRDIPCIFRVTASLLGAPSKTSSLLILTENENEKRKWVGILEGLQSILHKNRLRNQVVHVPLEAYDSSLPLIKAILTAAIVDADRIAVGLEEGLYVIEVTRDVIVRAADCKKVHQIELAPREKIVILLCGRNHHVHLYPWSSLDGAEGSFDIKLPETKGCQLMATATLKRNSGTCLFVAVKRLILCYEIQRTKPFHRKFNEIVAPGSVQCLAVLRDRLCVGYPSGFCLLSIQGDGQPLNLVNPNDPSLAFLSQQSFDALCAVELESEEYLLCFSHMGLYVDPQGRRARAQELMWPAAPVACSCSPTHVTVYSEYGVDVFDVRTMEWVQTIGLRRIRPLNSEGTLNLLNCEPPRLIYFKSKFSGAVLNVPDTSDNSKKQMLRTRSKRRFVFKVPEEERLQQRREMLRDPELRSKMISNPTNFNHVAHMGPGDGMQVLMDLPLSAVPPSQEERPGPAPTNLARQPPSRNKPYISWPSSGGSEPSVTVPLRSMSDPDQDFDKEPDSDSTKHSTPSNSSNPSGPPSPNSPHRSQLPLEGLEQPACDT
# Sequence of 320 wild-type protein kinases (Homo sapiens, UniProt P49841) (P49841 whole entry): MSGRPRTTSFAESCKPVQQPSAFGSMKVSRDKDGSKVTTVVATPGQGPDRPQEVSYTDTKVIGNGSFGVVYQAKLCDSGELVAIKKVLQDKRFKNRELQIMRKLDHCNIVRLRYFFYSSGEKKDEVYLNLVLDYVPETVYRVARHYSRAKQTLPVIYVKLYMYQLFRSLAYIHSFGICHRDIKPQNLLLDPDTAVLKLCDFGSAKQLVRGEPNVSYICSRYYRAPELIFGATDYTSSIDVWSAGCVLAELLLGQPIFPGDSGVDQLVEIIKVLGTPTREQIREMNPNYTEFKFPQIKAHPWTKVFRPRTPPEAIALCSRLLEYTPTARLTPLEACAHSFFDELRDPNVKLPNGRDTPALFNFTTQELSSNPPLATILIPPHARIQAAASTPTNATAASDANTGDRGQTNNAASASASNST
Structure (SMILES),Residual activity ([1]; 1.0E-06 M),Residual activity ([1]; 1.0E-07 M),"Residual activity, SRC (GST-HIS-tag) ([2]; assay conc. 1.0E-06 M)","Residual activity, SRC (GST-HIS-tag) ([2]; assay conc. 1.0E-07 M)","Residual activity ([3]; PHKG2, 1.0E-06 M)","Residual activity ([3]; PHKG2, 1.0E-07 M)","Residual activity ([4]; EPHA1, 1.0E-06 M)","Residual activity ([4]; EPHA1, 1.0E-07 M)",Residual activity ([5]; 1.0E-06 M),Residual activity ([5]; 1.0E-07 M),"Residual activity, SIK1 ([6]; assay conc. 1.0E-06 M)","Residual activity, SIK1 ([6]; assay conc. 1.0E-07 M)",Residual activity ([7]; 1.0E-06 M),Residual activity ([7]; 1.0E-07 M),"Residual activity ([8]; PHKG1, 1.0E-06 M)","Residual activity ([8]; PHKG1, 1.0E-07 M)","Residual activity, WNK2 ([9]; assay conc. 1.0E-06 M)","Residual activity, WNK2 ([9]; assay conc. 1.0E-07 M)",Residual activity ([10]; 1.0E-06 M),Residual activity ([10]; 1.0E-07 M)
C#Cc1cc(Nc2ncnc3cc(I)ccc23)ccc1Cl [Compound 41],89 % of control,93 % of control,86 % of control,108 % of control,98 % of control,94 % of control,78 % of control,106 % of control,84 % of control,96 % of control,77 % of control,93 % of control,107 % of control,99 % of control,94 % of control,97 % of control,82 % of control,108 % of control,98 % of control,101 % of control
C#Cc1cc(Nc2ncnc3cc(OC)c(OC)cc23)ccc1Cl [Compound 45],70 % of control,99 % of control,90 % of control,100 % of control,103 % of control,95 % of control,80 % of control,91 % of control,85 % of control,84 % of control,87 % of control,101 % of control,99 % of control,88 % of control,85 % of control,108 % of control,92 % of control,97 % of control,95 % of control,98 % of control
